Source: patent US11065253B2, “Arylquinazolines” (Merck Patent GmbH, priority 2013, dated 2021)
pIC50: −log10 of the molar value.

test system: phospho-serine 2056 DNA-PK in HCT116 cells; assay: DNA-PK phosphorylation at serine 2056 (cellular), ELISA in bleomycin-treated HCT116 cells; assay type: cell-based; conditions: Homo sapiens, HCT-116, 6 h, cellular; HCT116 cells, 10 μM bleomycin, six hours; read-out: IC50 pDNA-PK
Method in brief: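 Chemiluminescent ELISA quantified DNA-PK Ser2056 phosphorylation relative to total DNA-PKcs in HCT116 cells. Cells received compounds together with 10 μM bleomycin for 6 h; DMSO served as blank.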

| pIC50 | Structure (SMILES) |
| --- | --- |
| > 6.30 | Cc1nccnc1[C@H](O)c1ccc(F)c(-c2ncnc3cc(N4CCOCC4)ccc23)c1 [Example 83, (R)-[4-Fluoro-3-(7-morpholin-4-yl-quinazolin-4-yl)-phenyl]-(3-methyl-pyrazin-2-yl)methanol] |
| 5.30 to 6.30 | CNC(=O)c1ccc(C(O)c2cc(-c3ncnc4cc(N5CCOCC5)ccc34)c(F)cc2Cl)nn1 (stereo not drawn) [Example 43, 6-{[2-Chloro-4-fluoro-5-(7-morpholin-4-yl-quinazolin-4-yl)phenyl]-hydroxymethyl}-pyridazine-3-carboxylic acid methylamide] |
| 5.00 to 5.30 | OC(c1ccc(F)c(-c2ncnc3cc(N4CCOCC4)ccc23)c1)c1nccnc1OC1COC1 (stereo not drawn) [Example 32, [4-fluoro-3-(7-morpholin-4-yl-quinazolin-4-yl)phenyl]-[3-(oxetan-3-yloxy)-pyrazin-2-yl]methanol] |
| > 6.30 | OC(c1cc(-c2ncnc3cc(N4CCOCC4)ccc23)c(F)cc1F)c1ncnc2sccc12 (stereo not drawn) [Example 90, [2,4-Difluoro-5-(7-morpholin-4-yl-quinazolin-4-yl)-phenyl]thieno[2,3-d}-pyrimidin-4-ylmethanol] |
| 4.52 to 5.00 | COc1cnc(C(O)c2ccc(OC)c(-c3ncnc4cc(N5CCOCC5)ccc34)c2)cn1 (stereo not drawn) [Example 61, [4-methoxy-3-(7-morpholin-4-yl-quinazolin-4-yl)phenyl]-(5-methoxypyrazin-2-yl)methanol] |
| > 6.30 | O=c1ccc(C(O)c2cc(-c3ncnc4cc(N5CCOCC5)ccc34)c(F)cc2Cl)n[nH]1 (stereo not drawn) [Example 92, 3-[[2-Chloro-4-fluoro-5-(7-morpholino-quinazolin-4-yl)phenyl]-hydroxymethyl]-1H-pyridazin-6-one] |
| 5.30 to 6.30 | COc1ccnnc1C(O)c1cc(-c2ncnc3cc(N4CCOCC4)ccc23)c(F)cc1Cl (stereo not drawn) [Example 3, [2-Chloro-4-fluoro-5-(7-morpholin-4-yl-quinazolin-4-yl)phenyl]-(4-methoxy-pyridazin-3-yl)methanol] |
| > 6.30 | Cc1cnc(C)c(C(O)c2cc(-c3ncnc4cc(N5CCOCC5)ccc34)c(F)cc2F)n1 (stereo not drawn) [Example 88, [2,4-Difluoro-5-(7-morpholin-4-yl-quinazolin-4-yl)-phenyl]-(3,6-dimethyl-pyrazin-2-yl)methanol] |

| Structure (SMILES) | pIC50 |
| --- | --- |
| CC(C)(C)Oc1nccnc1C(O)c1ccc(F)c(-c2ncnc3cc(N4CCOCC4)ccc23)c1 (stereo not drawn) [Example 13, (3-tert-Butoxy-pyrazin-2-yl)-[4-fluoro-3-(7-morpholin-4-yl-quinazolin-4-yl)phenyl]-methanol] | 4.52 to 5.00 |

same assay, conditions: Homo sapiens, HCT-116, cellular DNA-PK phosphorylation at serine 2056, HCT116 cells; read-out: IC50 pDNA-PK

| pIC50 | Structure (SMILES) |
| --- | --- |
| 5.30 to 6.30 | O=c1ccc(C(O)c2ccc(F)c(-c3ncnc4cc(N5CCOCC5)ccc34)c2)n[nH]1 (stereo not drawn) [Example 367, 6-{[4-Fluoro-3-(7-morpholin-4-yl-quinazolin-4-yl)phenyl]-hydroxymethyl}-2H-pyridazin-3-one] |
| > 6.30 | OC(c1ccc(F)c(-c2ncnc3cc(N4CCOCC4)ccc23)c1)c1ncccc1OC(F)(F)F (stereo not drawn) [Example 475, [4-Fluoro-3-(7-morpholin-4-yl-quinazolin-4-yl)-phenyl]-(3-trifluoro-methoxypyridin-2-yl)-methanol] |
| 5.30 to 6.30 | COc1nccnc1C(O)c1cc(-c2ncnc3cc(N4CCOCC4)ccc23)ccc1F (stereo not drawn) [Example 394, [2-Fluoro-5-(7-morpholin-4-yl-quinazolin-4-yl)-phenyl]-(3-methoxy-pyrazin-2-yl)-methanol] |
| 5.30 to 6.30 | Cn1c(C(O)c2cc(-c3ncnc4cc(N5CCOCC5)ccc34)c(F)cc2Cl)cccc1=O (stereo not drawn) [Example 382, 6-{[2-Chloro-4-fluoro-5-(7-morpholin-4-yl-quinazolin-4-yl)-phenyl]hydroxy-methyl}-1-methyl-1H-pyridin-2-one (Ena 2)] |

same assay, conditions: Homo sapiens, HCT-116, phospho-serine 2056 DNA-PK, bleomycin-treated HCT116 cells; class symbols A-D; read-out: IC50 pDNA-PK

| pIC50 | Structure (SMILES) |
| --- | --- |
| 4.52 to 5.00 | OC(c1cccc(-c2ncnc3cc(N4CCOCC4)ccc23)c1)(c1nccs1)C(F)(F)F (stereo not drawn) [Example 159, 2,2,2-Trifluoro-1-[3-(7-morpholin-4-yl-quinazolin-4-yl)-phenyl]-1-thiazol-2-ylethanol] |
| 5.00 to 5.30 | NC(=O)COc1ccc(C(O)c2cc(-c3ncnc4cc(N5CCOCC5)ccc34)c(F)cc2Cl)nn1 (stereo not drawn) [Example 111, 2-(6-{[2-Chloro-4-fluoro-5-(7-morpholin-4-yl-quinazolin-4-yl)-phenyl]hydroxy-methyl}pyridazin-3-yloxy)acetamide] |
| > 6.30 | CSc1ccc(C(O)c2cc(-c3ncnc4cc(N5CCOCC5)ccc34)c(F)cc2Cl)nn1 (stereo not drawn) [Example 108, [2-Chloro-4-fluoro-5-(7-morpholin-4-yl-quinazolin-4-yl)-phenyl]-(6-methyl-sulfanylpyridazin-3-yl)methanol] |
| 4.52 to 5.00 | CC(O)(c1ccc(F)c(-c2ncnc3cc(N4CCOCC4)ccc23)c1)c1nccs1 (stereo not drawn) [Example 163, 1-[4-Fluoro-3-(7-morpholin-4-yl-quinazolin-4-yl)-phenyl]-1-thiazol-2-ylethanol] |
| 5.30 to 6.30 | C#CC(O)(c1ccc(OC)nn1)c1cc(-c2ncnc3cc(N4CCOCC4)ccc23)c(F)cc1Cl (stereo not drawn) [Example 122, 1-[2-Chloro-4-fluoro-5-(7-morpholin-4-yl-quinazolin-4-yl)-phenyl]-1-(6-methoxy-pyridazin-3-yl)-prop-2-yn-1-ol] |
| > 6.30 | N#CCOc1ccc(C(O)c2cc(-c3ncnc4cc(N5CCOCC5)ccc34)c(F)cc2Cl)nn1 (stereo not drawn) [Example 119, (6-{[2-Chloro-4-fluoro-5-(7-morpholin-4-yl-quinazolin-4-yl)-phenyl]hydroxy-methyl}pyridazin-3-yl-oxy)acetonitrile] |
| 4.52 to 5.00 | COc1ccc(C(C)(O)c2cc(-c3ncnc4cc(N5CCOCC5)ccc34)c(F)cc2Cl)nn1 (stereo not drawn) [Example 125, 1-[2-Chloro-4-fluoro-5-(7-morpholin-4-yl-quinazolin-4-yl)-phenyl]-1-(6-methoxy-pyridazin-3-yl)-ethanol] |
| 5.30 to 6.30 | COc1ccc(C(O)c2cc(-c3ncnc4cc(N5CCOCC5)ccc34)c(F)cc2F)cc1 (stereo not drawn) [Example 120, [2,4-Difluoro-5-(7-morpholin-4-yl-quinazolin-4-yl)-phenyl]-(4-methoxyphenyl)-methanol] |

same assay, conditions: Homo sapiens, HCT-116, phospho-serine 2056 DNA-PK, bleomycin-treated HCT116 cells; read-out: IC50 pDNA-PK

| pIC50 | Structure (SMILES) |
| --- | --- |
| 5.00 to 5.30 | COc1nccnc1C(C(N)=O)c1cc(-c2ncnc3cc(N4CCOCC4)ccc23)ccc1Cl (stereo not drawn) [Example 304, 2-[2-Chloro-5-(7-morpholin-4-yl-quinazolin-4-yl)-phenyl]-2-(3-methoxy-pyrazin-2-yl)acetamide] |
| 5.30 to 6.30 | Cc1nccnc1C(O)c1cc(-c2ncnc3cc(N4CCOCC4)cnc23)c(F)cc1Cl (stereo not drawn) [Example 240, [2-Chloro-4-fluoro-5-(7-morpholin-4-yl-pyrido[3,2-d}-pyrimidin-4-yl)-phenyl]-(3-methyl-pyrazin-2-yl)-methanol] |
| > 6.30 | OC(c1ccc(F)c(-c2ncnc3cc(N4CCOCC4)ccc23)c1)c1nncc2sccc12 (stereo not drawn) [Example 333, [4-Fluoro-3-(7-morpholin-4-yl-quinazolin-4-yl)-phenyl]thieno[2,3-d}-pyridazin-4-yl-methanol] |
| 5.30 to 6.30 | NC(=O)C(c1ccc(F)c(-c2ncnc3cc(N4CCOCC4)ccc23)c1)c1cncc(F)c1Cl (stereo not drawn) [Example 322, 2-(4-Chloro-5-fluoro-pyridin-3-yl)-2-[4-fluoro-3-(7-morpholin-4-yl-quinazolin-4-yl)-phenyl]acetamide] |
| 5.30 to 6.30 | NC(=O)C(c1ccc(F)c(-c2ncnc3cc(N4CCOCC4)ccc23)c1)c1c(F)cncc1F (stereo not drawn) [Example 321, 2-(3,5-Difluoro-pyridin-4-yl)-2-[4-fluoro-3-(7-morpholin-4-yl-quinazolin-4-yl)-phenyl]acetamide] |
| > 6.30 | OC(c1ccc(F)c(-c2ncnc3cc(N4CCOCC4)ccc23)c1)c1nncc2ccsc12 (stereo not drawn) [Example 332, [4-Fluoro-3-(7-morpholin-4-yl-quinazolin-4-yl)-phenyl]thieno[2,3-d}-pyridazin-7-yl-] |

same assay, conditions: cellular DNA-PK phosphorylation at serine 2056, HCT116 cells; read-out: IC50 pDNA-PK

| pIC50 | Structure (SMILES) |
| --- | --- |
| > 6.30 | OC(c1cc(-c2ncnc3cc(N4CCOCC4)ccc23)c(F)cc1F)c1ncnc2ccoc12 (stereo not drawn) [Example 445, [2,4-Difluoro-5-(7-morpholin-4-yl-quinazolin-4-yl)-phenyl]furo[3,2-d}-pyrimidin-4-yl-methanol] |
| > 6.30 | OC(c1cc(-c2ncnc3cc(N4CCOCC4)ccc23)c(F)cc1Cl)c1ncnc2ccoc12 (stereo not drawn) [Example 441, [2-Chloro-4-fluoro-5-(7-morpholin-4-yl-quinazolin-4-yl)-phenyl]furo[3,2-d}-pyrimidin-4-yl-methanol] |

| Structure (SMILES) | pIC50 |
| --- | --- |
| Cn1cnc2ncnc(C(O)c3cc(-c4ncnc5cc(N6CCOCC6)ccc45)c(F)cc3Cl)c21 (stereo not drawn) [Example 423, [2-Chloro-4-fluoro-5-(7-morpholin-4-yl-quinazolin-4-yl)-phenyl]-(7-methyl-7H-purin-6-yl)-methanol] | 5.00 to 5.30 |

same assay, conditions: phospho-serine 2056 DNA-PK, bleomycin-treated HCT116 cells; class symbols A-D; read-out: IC50 pDNA-PK

| pIC50 | Structure (SMILES) |
| --- | --- |
| > 6.30 | CC(C#N)Oc1ccc(C(O)c2cc(-c3ncnc4cc(N5CCOCC5)ccc34)c(F)cc2Cl)nn1 (single isomer, unassigned) [Example 102, 2-(6-{[2-Chloro-4-fluoro-5-(7-morpholin-4-yl-quinazolin-4-yl)-phenyl]hydroxy-methyl}pyridazin-3-yloxy)propionitrile] |
| > 6.30 | CC(C#N)Oc1ccc(C(O)c2cc(-c3ncnc4cc(N5CCOCC5)ccc34)c(F)cc2Cl)nn1 (stereo not drawn) [Example 101, 2-(6-{[2-Chloro-4-fluoro-5-(7-morpholin-4-yl-quinazolin-4-yl)-phenyl]hydroxy-methyl}pyridazin-3-yloxy)propionitrile] |
| 4.52 to 5.00 | Cc1nc([C@H](O)c2cnc(F)c(-c3ncnc4cc(N5CCOCC5)ncc34)c2)sc1C [Example 204, (R)-(4,5-Dimethyl-thiazol-2-yl)-[6-fluoro-5-(7-morpholin-4-yl-pyrido[4,3-d}-pyrimidin-4-yl)-pyridin-3-yl]-methanol] |
